Experimental data from patent US10464947B2 (Incyte Corporation, priority 2013, dated 2019).
Counter-ions that a name gives are not always drawn.

What follows are molecules tested on KMS.12.BM cells (assay: KMS.12.BM Cell Viability Assay (Example B1)). Settings: 3 days, Cell Titer-GLO, read-out: KMS cellular IC50.
Assay type: cell-based, human
Description: KMS.12.BM cell line (human myeloma) was purchased from JCRB (Osaka, Japan) and maintained in RPMI with 10% FBS culture medium. To measure the cytotoxic activity of the compounds through ATP quantitation, the KMS.12.BM cells are plated in the RPMI culture medium at 5000 cells/well/per 100 μL into a 96-well polystyrene clear black tissue culture plate (Greiner-bio-one through VWR, NJ), in the presence or absence of a concentration range of test compounds. After 3 days, […] Cell Titer-GLO Luminescent (Promega, Madison, Wis.) cell culture agent is added to each well for 10 min. at room temperature to stabilize the luminescent signal. This determines the number of viable cells in culture based on quantitation of the ATP present, which signals the presence of metabolically active cells.

| SMILES | IC50 [µM] |
| --- | --- |
| Cc1noc(C)c1-c1ccc2[nH]c(=O)n3c2c1OCC3C1CCCO1 (single isomer, unassigned) [Example 18B, 7-(3,5-Dimethylisoxazol-4-yl)-4-(tetrahydrofuran-2-yl)-4,5-dihydroimidazo[1,5,4-de][1,4]benzoxazin-2(1H)-one] | < 1 |

Same assay, conditions: Homo sapiens, 72 h, 3 days, Cell Titer-GLO, read-out: KMS cellular IC50

| SMILES | IC50 [µM] |
| --- | --- |
| Cc1noc(C)c1-c1ccc2nc(N3CCN(S(N)(=O)=O)CC3)n3c2c1OC[C@@H]3c1ccccn1 [Example 229, 4-[(4S)-7-(3,5-dimethylisoxazol-4-yl)-4-pyridin-2-yl-4,5-dihydroimidazo[1,5,4-de][1,4]benzoxazin-2-yl]piperazine-1-sulfonamide] | < 1 |
| Cc1noc(C)c1-c1ccc2nc(N3CCN4CCC[C@H]4C3)n3c2c1OC[C@@H]3c1ccccn1 [Example 193A, (4S)-7-(3,5-dimethylisoxazol-4-yl)-2-[(8aS)-hexahydropyrrolo[1,2-a]pyrazin-2(1H)-yl]-4-pyridin-2-yl-4,5-dihydroimidazo[1,5,4-de][1,4]benzoxazine] | < 1 |
| Cc1noc(C)c1-c1ccc2[nH]c(=S)n3c2c1OCC3c1ccccn1 (centres unmarked) [Example 255, 7-(3,5-Dimethylisoxazol-4-yl)-4-pyridin-2-yl-4,5-dihydroimidazo[1,5,4-de][1,4]benzoxazine-2(1H)-thione] | < 1 |
| COC(=O)N[C@@H]1CCN(c2nc3ccc(-c4c(C)noc4C)c4c3n2[C@@H](c2ccccn2)CO4)C1 [Example 155, Methyl {(3R)-1-[(4S)-7-(3,5-dimethylisoxazol-4-yl)-4-pyridin-2-yl-4,5-dihydroimidazo[1,5,4-de][1,4]benzoxazin-2-yl]pyrrolidin-3-yl}carbamate] | < 1 |
| Cc1noc(C)c1-c1ccc2nc(N3CC[C@H](NC(=O)OC(C)(C)C)C3)n3c2c1OC[C@@H]3c1ccccn1 [Example 182B, tert-butyl {(3S)-1-[(4S)-7-(3,5-dimethylisoxazol-4-yl)-4-pyridin-2-yl-4,5-dihydroimidazo[1,5,4-de][1,4]benzoxazin-2-yl]pyrrolidin-3-yl}carbamate] | < 1 |
| Cc1noc(C)c1-c1ccc2nc(N3CCCC3)n3c2c1OCC3c1ccccc1 (centres unmarked) [Example 54, 7-(3,5-Dimethylisoxazol-4-yl)-4-phenyl-2-pyrrolidin-1-yl-4,5-dihydroimidazo[1,5,4-de][1,4]benzoxazine] | < 1 |
| Cc1noc(C)c1-c1ccc2nc(N3CC[C@@H](NC(=O)C(C)C)C3)n3c2c1OC[C@@H]3c1ccccn1 [Example 209, N-{(3R)-1-[(4S)-7-(3,5-dimethylisoxazol-4-yl)-4-pyridin-2-yl-4,5-dihydroimidazo[1,5,4-de][1,4]benzoxazin-2-yl]pyrrolidin-3-yl}-2-methylpropanamide] | < 1 |
| Cc1noc(C)c1-c1ccc2nc(N3CCN(CC(=O)N(C)C)CC3)n3c2c1OC[C@@H]3c1ccccn1 [Example 151, 2-{4-[(4S)-7-(3,5-Dimethylisoxazol-4-yl)-4-pyridin-2-yl-4,5-dihydroimidazo[1,5,4-de][1,4]benzoxazin-2-yl]piperazin-1-yl}-N,N-dimethylacetamide] | < 1 |
| Cc1noc(C)c1-c1cc(CNc2ccccc2)c2[nH]c(=O)n3c2c1OCC3c1ccccn1 (centres unmarked) [Example 262, 9-(anilinomethyl)-7-(3,5-dimethylisoxazol-4-yl)-4-pyridin-2-yl-4,5-dihydroimidazo[1,5,4-de][1,4]benzoxazin-2(1H)-one] | < 1 |
| Cc1noc(C)c1-c1ccc2nc(N3CC[C@@H](N(C)C)C3)n3c2c1OC[C@@H]3c1ccccn1 [Example 180A, (3R)-1-[(4S)-7-(3,5-dimethylisoxazol-4-yl)-4-pyridin-2-yl-4,5-dihydroimidazo[1,5,4-de][1,4]benzoxazin-2-yl]-N,N-dimethylpyrrolidin-3-amine] | < 1 |
| Cc1noc(C)c1-c1cc(Br)c2[nH]c(=O)n3c2c1OCC3c1ccccn1 (single isomer, unassigned) [Example 267B, 9-bromo-7-(3,5-dimethylisoxazol-4-yl)-4-pyridin-2-yl-4,5-dihydroimidazo[1,5,4-de][1,4]benzoxazin-2(1H)-one] | < 1 |
| Cc1noc(C)c1-c1cc(Br)c2[nH]c(=O)n3c2c1OCC3c1ccccc1 (centres unmarked) [Example 45, 9-Bromo-7-(3,5-Dimethylisoxazol-4-yl)-4-phenyl-4,5-dihydroimidazo[1,5,4-de][1,4]benzoxazin-2(1H)-one] | < 1 |
| Cc1noc(C)c1-c1ccc2nc(N3CC[C@@H](N(C)S(C)(=O)=O)C3)n3c2c1OC[C@@H]3c1ccccn1 [Example 220, N-{(3R)-1-[(4S)-7-(3,5-dimethylisoxazol-4-yl)-4-pyridin-2-yl-4,5-dihydroimidazo[1,5,4-de][1,4]benzoxazin-2-yl]pyrrolidin-3-yl}-N-methylmethanesulfonamide] | < 1 |
| Cc1noc(C)c1-c1ccc2nc(N3CC(N)C3)n3c2c1OC[C@@H]3c1ccccn1 [Example 230, 1-[(4S)-7-(3,5-dimethylisoxazol-4-yl)-4-pyridin-2-yl-4,5-dihydroimidazo[1,5,4-de][1,4]benzoxazin-2-yl]azetidin-3-amine trihydrochloride] | < 1 |
| Cc1noc(C)c1-c1ccc2nc(N3CCCN(C(=O)OC(C)(C)C)CC3)n3c2c1OC[C@@H]3c1ccccn1 [Example 197, tert-butyl 4-[(4S)-7-(3,5-dimethylisoxazol-4-yl)-4-pyridin-2-yl-4,5-dihydroimidazo[1,5,4-de][1,4]benzoxazin-2-yl]-1,4-diazepane-1-carboxylate] | < 1 |
| Cc1noc(C)c1-c1cc(C#N)c2[nH]c(=O)n3c2c1OCC3c1ccccc1 (centres unmarked) [Example 42, 7-(3,5-Dimethylisoxazol-4-yl)-2-oxo-4-phenyl-1,2,4,5-tetrahydroimidazo[1,5,4-de][1,4]benzoxazine-9-carbonitrile] | < 1 |
| Cc1noc(C)c1-c1cc(F)c2nc(N3CCC(O)C3)n3c2c1OCC3c1cccnc1 (centres unmarked) [Example 157, 1-[7-(3,5-Dimethylisoxazol-4-yl)-9-fluoro-4-pyridin-3-yl-4,5-dihydroimidazo[1,5,4-de][1,4]benzoxazin-2-yl]pyrrolidin-3-ol] | < 1 |
| Cc1noc(C)c1-c1ccc2nc(N3CCCC(O)C3)n3c2c1OCC3c1ccccc1 (centres unmarked) [Example 58, 1-[7-(3,5-Dimethylisoxazol-4-yl)-4-phenyl-4,5-dihydroimidazo[1,5,4-de][1,4]benzoxazin-2-yl]piperidin-3-ol] | < 1 |
| Cc1noc(C)c1-c1ccc2nc(N3CC(NC(=O)C(C)C)C3)n3c2c1OC[C@@H]3c1ccccn1 [Example 233, N-{1-[(4S)-7-(3,5-dimethylisoxazol-4-yl)-4-pyridin-2-yl-4,5-dihydroimidazo[1,5,4-de][1,4]benzoxazin-2-yl]azetidin-3-yl}-2-methylpropanamide] | < 1 |
| Cc1noc(C)c1-c1ccc2nc(N3CCNC(=O)C3C)n3c2c1OC[C@@H]3c1ccccn1 (stereo partly drawn) [Example 195, 4-[(4S)-7-(3,5-dimethylisoxazol-4-yl)-4-pyridin-2-yl-4,5-dihydroimidazo[1,5,4-de][1,4]benzoxazin-2-yl]-3-methylpiperazin-2-one] | < 1 |
| Cc1noc(C)c1-c1ccc2nc(C3CCN(C(=O)OC(C)(C)C)CC3)n3c2c1OC[C@@H]3c1ccccn1 [Example 100, tert-Butyl 4-[(4S)-7-(3,5-dimethylisoxazol-4-yl)-4-pyridin-2-yl-4,5-dihydroimidazo[1,5,4-de][1,4]benzoxazin-2-yl]piperidine-1-carboxylate] | < 1 |
| Cc1noc(C)c1-c1ccc2nc(N3CCN(C)CC3)n3c2c1OC[C@@H]3c1ccccn1 [Example 163, (4S)-7-(3,5-dimethylisoxazol-4-yl)-2-(4-methylpiperazin-1-yl)-4-pyridin-2-yl-4,5-dihydroimidazo[1,5,4-de][1,4]benzoxazine] | < 1 |
| Cc1noc(C)c1-c1ccc2nc(N3CCC(NS(C)(=O)=O)CC3)n3c2c1OC[C@@H]3c1ccccn1 [Example 240, N-{1-[(4S)-7-(3,5-dimethylisoxazol-4-yl)-4-pyridin-2-yl-4,5-dihydroimidazo[1,5,4-de][1,4]benzoxazin-2-yl]piperidin-4-yl}methanesulfonamide] | < 1 |
| Cc1noc(C)c1-c1ccc2nc(N3CCCN(S(C)(=O)=O)CC3)n3c2c1OC[C@@H]3c1ccccn1 [Example 149, (4S)-7-(3,5-Dimethylisoxazol-4-yl)-2-[4-(methylsulfonyl)-1,4-diazepan-1-yl]-4-pyridin-2-yl-4,5-dihydroimidazo[1,5,4-de][1,4]benzoxazine] | < 1 |
| Cc1noc(C)c1-c1ccc2nc(N3CCCN(S(N)(=O)=O)CC3)n3c2c1OC[C@@H]3c1ccccn1 [Example 147, 4-[(4S)-7-(3,5-Dimethylisoxazol-4-yl)-4-pyridin-2-yl-4,5-dihydroimidazo[1,5,4-de][1,4]benzoxazin-2-yl]-1,4-diazepane-1-sulfonamide] | < 1 |
| CNc1nc2ccc(-c3c(C)noc3C)c3c2n1C(c1ccccn1)CO3 (centres unmarked) [Example 186, 7-(3,5-dimethylisoxazol-4-yl)-N-methyl-4-pyridin-2-yl-4,5-dihydroimidazo[1,5,4-de][1,4]benzoxazin-2-amine] | < 1 |

Same assay, conditions: Homo sapiens, KMS-12-BM, 72 h, 3 days, Cell Titer-GLO, read-out: KMS cellular IC50

| SMILES | IC50 [µM] |
| --- | --- |
| Cc1noc(C)c1-c1ccc2nc(N(C)CCO)n3c2c1OCC3c1ccccn1 (centres unmarked) [Example 185, 2-[[7-(3,5-dimethylisoxazol-4-yl)-4-pyridin-2-yl-4,5-dihydroimidazo[1,5,4-de][1,4]benzoxazin-2-yl](methyl)amino]ethanol] | < 1 |
| Cc1noc(C)c1-c1cc(Cl)c2[nH]c(=O)n3c2c1OCC3c1ccccn1 (single isomer, unassigned) [Example 266A, 9-chloro-7-(3,5-dimethylisoxazol-4-yl)-4-pyridin-2-yl-4,5-dihydroimidazo[1,5,4-de][1,4]benzoxazin-2(1H)-one] | < 1 |
